Test results from patent US10647743B2, “Method of making biologically active alpha-beta peptides” (priority 2008, dated 2020).
Where two headings read alike, the source gives them in different places. *1 amine or outer side, *2 acyl side, *3 side chain or, on linkers, in order; H or OH if unused. Where a SMILES comes first, the peptide text is derived from it. [ ]: non-standard residue; d: D form. ξ: configuration not given here. ξ(4-Aminopyrrolidine-3-CO) = O=C(C1CNCC1N[*:1])[*:2]; β3hR = N=C(N)NCCC[C@H](N)CC(=O)O; β3hT = C[C@@H](O)[C@H](N)CC(=O)O; β3hE = N[C@@H](CCC(=O)O)CC(=O)O; X1 = O=C(C1CCCC1N[*:1])[*:2]

How the values were obtained:
gp41-5 = gp41-5 (Human immunodeficiency virus type 1 group M subtype B, UniProt P04578, C598G/DEL582-595/DEL601-626/T627G/W596S); experiment: biochemical; format: binding, HIV; conditions: for Ki: competition FP
[1] = biological target: T1, envelope glycoprotein of the HIV-1 clone HXB2 (Human immunodeficiency virus type 1 group M subtype B, UniProt P04578); experiment: cell-cell fusion assay; format: cell-based
T1 construct: One cell line expresses HIV-1 Env (processed by cellular proteases to generate gp120+gp41); expressed in transfected cells; host or cells: CHO cells expressing HXB2 env (and Tat); U373-MAGI target cells

proteinase K [2] = biological target: T2, proteinase K (Parengyodontium album, UniProt P06873); conditions: relative to 3
T2 sequence (P06873 106-384): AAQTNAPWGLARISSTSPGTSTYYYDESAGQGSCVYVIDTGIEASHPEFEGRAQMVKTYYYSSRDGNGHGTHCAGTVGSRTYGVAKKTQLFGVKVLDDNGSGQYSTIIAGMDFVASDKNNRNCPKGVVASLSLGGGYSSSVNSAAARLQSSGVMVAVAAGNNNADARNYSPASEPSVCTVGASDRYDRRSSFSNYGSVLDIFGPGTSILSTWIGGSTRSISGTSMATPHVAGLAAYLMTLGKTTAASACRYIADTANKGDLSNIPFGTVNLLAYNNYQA

HIV-1 NL4-3 = conditions: read-out: Inhibition of HIV-1 infectivity, IC50 (nM), X4 strains, NL4-3; TZM-bl cells; mean ± S.E.M., three experiments
HIV-1 HC4 = conditions: read-out: Inhibition of HIV-1 infectivity, IC50 (nM), X4 strains, HC4; TZM-bl cells; mean ± S.E.M., three experiments
HIV-1 CC 1/85 = conditions: read-out: Inhibition of HIV-1 infectivity, IC50 (nM), R5 strains, CC 1/85; TZM-bl cells; mean ± S.E.M., three experiments
HIV-1 DJ258 = conditions: read-out: Inhibition of HIV-1 infectivity, IC50 (nM), R5 strains, DJ258; TZM-bl cells; mean ± S.E.M., three experiments
proteinase K [3] = biological target: T2, proteinase K; experiment: in vitro; conditions: for half-life at 20 μM: proteinase K solution in TBS
NHR α-peptide 1 = biological target: T3, NHR α-peptide 1 (Human immunodeficiency virus type 1 group M subtype B, UniProt P04578); experiment: CD thermal unfolding of 1:1 NHR + CHR peptide mixtures; format: physicochemical, HIV; conditions: Table 2; CD at 222 nm, 1:1 mixture with NHR α-peptide 1, PBS, 20 μM total peptide
T3 construct: made in house; host or cells: chemical synthesis (Fmoc solid phase)
Procedure: The interactions of select α/β-peptides with the gp41 NHR domain were further investigated by circular dichroism (CD) spectroscopy. The CD spectra of 3, 4, 5, 8, 9 and were measured, both alone (see FIG. 5A) and in a 1:1 mixture with NHR α-peptide 1 (see FIGS. 3A, 3B, 3C, and 3D, respectively). See also FIGS. 5B and 5C for the superimposed spectra. […] The magnitude of the CD signatures among the well-folded mixtures (1+3, 1+5 and 1+10, FIGS. 3A, 3C, and 3D, respectively) are similar, but the ratio of intensities at 208 and 222 nm changes as a function of β-residue content (more β-residues tracks with a less intense peak at 222 nm).
The interactions of CHR α-peptide 3 and α/β-peptide analogues 4, 5, 8 and 10 with a peptide derived from the gp41 NHR domain (1) were investigated by circular dichroism (CD) spectroscopy. […] The magnitude of the CD signatures among the well-folded mixtures (1+3, 1+5, 1+8 and 1+10) are similar, but the ratio of intensities at 208 and 222 nm changes as a function of β-residue content (higher β-residue content is correlated with a less intense peak at 222 nm). This trend is consistent with previous studies on helical oligomers containing mixed α/β backbones.
Circular Dichroism Spectroscopy. Circular dichroism measurements were carried out on an Aviv 202SF Circular Dichroism Spectrophotometer. Samples of each peptide were prepared at 20 μM concentration in PBS. Solutions of 1:1 peptide mixtures were prepared by mixing equal volumes from the same 20 μM stock solutions used for individual peptide measurements. Spectra were recorded in a 1 mm cell with a step size of 1 nm and an averaging time of 5 sec. All spectra are background corrected against buffer measured in the same cell. Thermal melts were carried out in 5-degree increments with an equilibration time of 10 min between each temperature change. Thermal unfolding data were fit to a simple two state folding model Shortle, D.; Meeker, A. K.; Freire, E. Biochemistry 1988, 27, 4761-4768) using GraphPad Prism.

In the case of `CC[C@H](C)[C@H](NC(=O)[C@H](C)NC(=O)C[C@H](CCCNC(=N)N)NC(=O)[C@H](CC(=O)O)NC(=O)[C@H](Cc1c[nH]c2ccccc12)NC(=O)C[C@H](C)NC(=O)[C@H](CCC(=O)O)NC(=O)[C@H](Cc1c[nH]c2ccccc12)NC(=O)[C@@H](NC(=O)C[C@@H](NC(C)=O)[C@@H](C)O)[C@@H](C)O)C(=O)N[C@@H](C)C(=O)N[C@@H](CCC(=O)O)CC(=O)N[C@@H](Cc1ccc(O)cc1)C(=O)N[C@@H](C)C(=O)N[C@@H](C)CC(=O)N[C@@H](CCCNC(=N)N)C(=O)N[C@H](C(=O)N[C@@H](CCC(=O)O)C(=O)N[C@@H](C)CC(=O)N[C@@H](CC(C)C)C(=O)N[C@H](C(=O)N[C@@H](CCCNC(=N)N)CC(=O)N[C@@H](C)C(=O)N[C@@H](C)C(=O)N[C@@H](CCC(N)=O)C(=O)N[C@@H](CCC(=O)O)CC(=O)N[C@@H](CCC(N)=O)C(=O)N[C@@H](CCC(N)=O)C(=O)N[C@@H](CCC(=O)O)CC(=O)N[C@@H](CCCCN)C(=O)N[C@@H](CC(N)=O)C(=O)N[C@@H](CCC(=O)O)C(=O)N[C@@H](C)CC(=O)N[C@@H](C)C(=O)N[C@@H](CC(C)C)C(=O)N[C@@H](CCCNC(=N)N)CC(=O)N[C@@H](CCC(=O)O)C(=O)N[C@@H](CC(C)C)C(N)=O)[C@@H](C)CC)[C@@H](C)CC` [compound 4], the Ki (gp41-5; Table 2, read-out: gp41-5 Ki) is reported as 3800 nM, the IC50 [1] is reported as 390 ± 40 nM and the “fold improvement in stability to proteinase K relative to α-peptide 3” value (proteinase K [2]) is reported as 20 fold. For the same compound, the IC50 (HIV-1 NL4-3) was 700 ± 60 nM, the IC50 (HIV-1 HC4) was 590 ± 100 nM and the IC50 (HIV-1 CC 1/85) was 1300 ± 100 nM. For the same compound, the IC50 (HIV-1 DJ258) was 960 ± 200 nM, the half-life at 20 μM (proteinase K [3]; Tritirachium album (source organism of proteinase K)) was 14 min and the half-life at 20 μM (proteinase K [3]) was 14 min.

`CC[C@H](C)[C@H](NC(=O)[C@H](C)NC(=O)[C@H](CCCNC(=N)N)NC(=O)[C@H](CC(=O)O)NC(=O)[C@H](Cc1c[nH]c2ccccc12)NC(=O)[C@H](C)NC(=O)[C@H](CCC(=O)O)NC(=O)[C@H](Cc1c[nH]c2ccccc12)NC(=O)[C@@H](NC(=O)[C@@H](NC(C)=O)[C@@H](C)O)[C@@H](C)O)C(=O)N[C@@H](C)C(=O)N[C@@H](CCC(=O)O)C(=O)N[C@@H](Cc1ccc(O)cc1)C(=O)N[C@@H](C)C(=O)N[C@@H](C)CC(=O)N[C@@H](CCCNC(=N)N)C(=O)N[C@H](C(=O)N[C@@H](CCC(=O)O)C(=O)N[C@@H](C)CC(=O)N[C@@H](CC(C)C)C(=O)N[C@H](C(=O)N[C@@H](CCCNC(=N)N)CC(=O)N[C@@H](C)C(=O)N[C@@H](C)C(=O)N[C@@H](CCC(N)=O)C(=O)N[C@@H](CCC(=O)O)CC(=O)N[C@@H](CCC(N)=O)C(=O)N[C@@H](CCC(N)=O)C(=O)N[C@@H](CCC(=O)O)CC(=O)N[C@@H](CCCCN)C(=O)N[C@@H](CC(N)=O)C(=O)N[C@@H](CCC(=O)O)C(=O)N[C@@H](C)CC(=O)N[C@@H](C)C(=O)N[C@@H](CC(C)C)C(=O)N[C@@H](CCCNC(=N)N)CC(=O)N[C@@H](CCC(=O)O)C(=O)N[C@@H](CC(C)C)C(N)=O)[C@@H](C)CC)[C@@H](C)CC` [compound 6] was tested, and the Ki (gp41-5; Table 2, read-out: gp41-5 Ki) was 15 nM.

For `CC[C@H](C)[C@H](NC(=O)[C@H](C)NC(=O)C1CNCC1NC(=O)[C@H](CC(=O)O)NC(=O)[C@H](Cc1c[nH]c2ccccc12)NC(=O)C1CCCC1NC(=O)[C@H](CCC(=O)O)NC(=O)[C@H](Cc1c[nH]c2ccccc12)NC(=O)[C@@H](NC(=O)C[C@@H](NC(C)=O)[C@@H](C)O)[C@@H](C)O)C(=O)N[C@@H](C)C(=O)N[C@@H](CCC(=O)O)CC(=O)N[C@@H](Cc1ccc(O)cc1)C(=O)N[C@@H](C)C(=O)NC1CCCC1C(=O)N[C@@H](CCCNC(=N)N)C(=O)N[C@H](C(=O)N[C@@H](CCC(=O)O)C(=O)NC1CCCC1C(=O)N[C@@H](CC(C)C)C(=O)N[C@H](C(=O)NC1CNCC1C(=O)N[C@@H](C)C(=O)N[C@@H](C)C(=O)N[C@@H](CCC(N)=O)C(=O)N[C@@H](CCC(=O)O)CC(=O)N[C@@H](CCC(N)=O)C(=O)N[C@@H](CCC(N)=O)C(=O)N[C@@H](CCC(=O)O)CC(=O)N[C@@H](CCCCN)C(=O)N[C@@H](CC(N)=O)C(=O)N[C@@H](CCC(=O)O)C(=O)NC1CCCC1C(=O)N[C@@H](C)C(=O)N[C@@H](CC(C)C)C(=O)NC1CNCC1C(=O)N[C@@H](CCC(=O)O)C(=O)N[C@@H](CC(C)C)C(N)=O)[C@@H](C)CC)[C@@H](C)CC` (stereo partly drawn) [compound 10, Ac-TTWEXWDZAIAEYAXRIEXLIZAAQEQQEKNEXALZEL-NH2] (Ac-[β3hT]TWE[X1]WD[ξ(4-Aminopyrrolidine-3-CO)]AIA[β3hE]YA[X1]RIE[X1]LI[ξ(4-Aminopyrrolidine-3-CO)]AAQ[β3hE]QQ[β3hE]KNE[X1]AL[ξ(4-Aminopyrrolidine-3-CO)]EL-NH2), the “fold difference in affinity for gp41-5 relative to 5” value (gp41-5) was greater than 45 fold, the “fold higher affinity for gp41-5 relative to 4” value (gp41-5; relative to 4) was roughly 380 fold and the “fold improvement of Ki relative to 9” value (gp41-5; relative to 9) was roughly 10 fold. The “NHR + CHR Tm (° C.)” value (NHR α-peptide 1) was 55 °C, the “fold improvement in stability to proteinase K relative to α-peptide 3” value (proteinase K [2]) was 280 fold and the half-life (proteinase K [3]) was 200 min.

With `CC[C@H](C)[C@H](NC(=O)[C@H](C)NC(=O)C[C@H](CCCNC(=N)N)NC(=O)[C@H](CC(=O)O)NC(=O)[C@H](Cc1c[nH]c2ccccc12)NC(=O)C[C@H](CCC(=O)O)NC(=O)[C@H](CCC(=O)O)NC(=O)[C@H](Cc1c[nH]c2ccccc12)NC(=O)[C@@H](NC(=O)C[C@H](CCCNC(=N)N)NC(C)=O)[C@@H](C)O)C(=O)N[C@@H](C)C(=O)N[C@@H](CCC(=O)O)CC(=O)N[C@@H](Cc1ccc(O)cc1)C(=O)N[C@@H](C)C(=O)N[C@@H](CCCNC(=N)N)CC(=O)N[C@@H](CCCNC(=N)N)C(=O)N[C@H](C(=O)N[C@@H](CCC(=O)O)C(=O)N[C@@H](CCC(=O)O)CC(=O)N[C@@H](CC(C)C)C(=O)N[C@H](C(=O)N[C@@H](CCCNC(=N)N)CC(=O)N[C@@H](C)C(=O)N[C@@H](C)C(=O)N[C@@H](CCC(N)=O)C(=O)N[C@@H](CCC(=O)O)CC(=O)N[C@@H](CCC(N)=O)C(=O)N[C@@H](CCC(N)=O)C(=O)N[C@@H](CCCNC(=N)N)CC(=O)N[C@@H](CCCCN)C(=O)N[C@@H](CC(N)=O)C(=O)N[C@@H](CCC(=O)O)C(=O)N[C@@H](CCC(=O)O)CC(=O)N[C@@H](C)C(=O)N[C@@H](CC(C)C)C(=O)N[C@@H](CCCNC(=N)N)CC(=O)N[C@@H](CCC(=O)O)C(=O)N[C@@H](CC(C)C)C(N)=O)[C@@H](C)CC)[C@@H](C)CC` [compound 17] (Ac-[β3hR]TWE[β3hE]WD[β3hR]AIA[β3hE]YA[β3hR]RIE[β3hE]LI[β3hR]AAQ[β3hE]QQ[β3hR]KNE[β3hE]AL[β3hR]EL-NH2) the Ki (gp41-5; read-out: Ki for gp41-5) was 11 nM.
